Laboratory results as given in PubChem BioAssay (NCI).
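Five concentrations, 48 hours, 96-well plates. Here, GI50 denotes the concentration required for 50% inhibition of growth. TGI: total growth inhibition.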

Columns and labels:
Assay in all cases: NCI tumour cell line growth inhibition, 48 h
786-0 renal = test system: 786-0 renal
CAKI-1 renal = test system: CAKI-1 renal
NCI/ADR-RES ovarian = test system: NCI/ADR-RES ovarian
SR leukemia = test system: SR leukemia
LOX IMVI melanoma = test system: LOX IMVI melanoma
OVCAR-8 ovarian = test system: OVCAR-8 ovarian
SN12C renal = test system: SN12C renal
IGROV1 ovarian = test system: IGROV1 ovarian
RPMI-8226 leukemia = test system: RPMI-8226 leukemia
M14 melanoma = test system: M14 melanoma

SMILES | GI50 (786-0 renal) | TGI (786-0 renal) | GI50 (CAKI-1 renal) | TGI (CAKI-1 renal) | GI50 (NCI/ADR-RES ovarian) | TGI (NCI/ADR-RES ovarian) | GI50 (SR leukemia) | TGI (SR leukemia) | GI50 (LOX IMVI melanoma) | TGI (LOX IMVI melanoma) | GI50 (OVCAR-8 ovarian) | TGI (OVCAR-8 ovarian) | GI50 (SN12C renal) | TGI (SN12C renal) | GI50 (IGROV1 ovarian) | TGI (IGROV1 ovarian) | GI50 (RPMI-8226 leukemia) | TGI (RPMI-8226 leukemia) | GI50 (M14 melanoma) | TGI (M14 melanoma)
C=C1CCC2C3(C)COC(C)(C)OC3CCC2(C)C1C/C=C1/C(=O)OCC1OC(C)=O (stereo not drawn) | 2.89 µM | 8.05 µM | 4.92 µM | 13 µM | 3.06 µM | 11.1 µM | 2.37 µM | 9.03 µM | 0.704 µM | 2.46 µM | 2.18 µM | 6.8 µM | 5.95 µM | 22.6 µM | 2.03 µM | 6.84 µM | 2.24 µM | 7.49 µM | 1.77 µM | 3.78 µM
O=C1C=CC(=O)c2c1ccc1c3ccccc3n(Cc3ccc([N+](=O)[O-])cc3)c21 | – | > 100 µM | – | > 100 µM | – | > 100 µM | – | 37.3 µM | – | – | – | > 100 µM | – | > 100 µM | – | > 100 µM | – | – | – | > 100 µM
C=CCc1c(Cl)nc(Cl)nc1Cl | – | 0.368 µM | – | 0.0367 µM | – | > 49.4 µM | – | > 100 µM | – | 0.344 µM | – | 1.32 µM | – | 1.46 µM | – | 1.36 µM | – | > 100 µM | – | 0.0714 µM
Nc1nc2ccc(-c3nc4ccc5[nH]ncc5c4c4c3CCC4)cc2s1 | 0.343 µM | 7.79 µM | 0.315 µM | 5.51 µM | 0.302 µM | 18.8 µM | 0.155 µM | 22.4 µM | 0.281 µM | 8.9 µM | 0.978 µM | 20.7 µM | 0.383 µM | 8.79 µM | 0.288 µM | 8.66 µM | 0.472 µM | 10.5 µM | 0.172 µM | 8.86 µM
CC(=O)Nc1ccc(-c2cc(C(=O)O)c3cc4ccccc4cc3n2)cc1 | – | > 100 µM | – | > 100 µM | – | > 100 µM | – | > 100 µM | – | > 100 µM | – | > 100 µM | – | > 100 µM | – | > 100 µM | – | > 100 µM | – | > 100 µM
N=C1C(O)C2(I)c3ccccc3N3C(=N)C(O)C4c5ccccc5N1C4C32 (stereo not drawn) | – | > 100 µM | – | > 100 µM | – | > 100 µM | – | > 100 µM | – | > 100 µM | – | > 100 µM | – | > 100 µM | – | > 100 µM | – | > 100 µM | – | > 100 µM
CCOC(=O)Oc1c(OC)cc(C(=O)c2ccc(OC)c(O)c2OC)cc1OC | 0.475 µM | > 100 µM | 1.81 µM | > 100 µM | 0.378 µM | 6.97 µM | 0.381 µM | > 100 µM | 0.557 µM | > 100 µM | 3.36 µM | > 100 µM | 2.79 µM | > 100 µM | 3.86 µM | > 100 µM | 0.456 µM | > 100 µM | 0.319 µM | > 100 µM
Cc1ccc2cnc(N)c(C#Cc3cc(C(=O)Nc4ccc(CN5CCN(C)CC5)c(C(F)(F)F)c4)cnc3C)c2c1 | 0.809 µM | 1.68 µM | 0.476 µM | 1.1 µM | 1.05 µM | 2.9 µM | 0.39 µM | 1.61 µM | 0.183 µM | 0.808 µM | 1.11 µM | 3.85 µM | 0.317 µM | 1.06 µM | 0.128 µM | 0.712 µM | 1.01 µM | 2.86 µM | 0.334 µM | 1.16 µM
Oc1cccc(Nc2nc3ccccc3c3occc23)c1 | 9.73 µM | 21.4 µM | 2.04 µM | 6.65 µM | 11.3 µM | 23.4 µM | 1.38 µM | 18.8 µM | 3.25 µM | 22.4 µM | 13 µM | 30.5 µM | 13.2 µM | 25.9 µM | – | – | 4.98 µM | 18.2 µM | 14.9 µM | 28.2 µM
c1ccc(-c2nc(-c3ccccn3)nc(-c3ccccn3)n2)nc1 | 61.5 µM | > 100 µM | 3.88 µM | 34.3 µM | 6.37 µM | > 100 µM | 37.9 µM | > 100 µM | 33.5 µM | > 100 µM | 21.3 µM | > 100 µM | 56.6 µM | > 100 µM | 15.8 µM | 55.2 µM | 18.3 µM | > 100 µM | 31.4 µM | > 100 µM
O=C(O)c1nc(NCc2nc3cc(Cl)ccc3o2)n[nH]1 | > 100 µM | > 100 µM | > 100 µM | > 100 µM | > 100 µM | > 100 µM | > 100 µM | > 100 µM | > 100 µM | > 100 µM | > 100 µM | > 100 µM | > 100 µM | > 100 µM | > 100 µM | > 100 µM | > 100 µM | > 100 µM | > 100 µM | > 100 µM
O=c1oc2ccccc2c2c1Sc1ccccc1N2 | – | > 100 µM | – | > 100 µM | – | > 100 µM | – | > 100 µM | – | > 100 µM | – | > 100 µM | – | > 100 µM | – | > 100 µM | – | > 100 µM | – | > 100 µM
CN(C)c1cc2ccccc2oc1=O | – | > 100 µM | – | > 100 µM | – | > 100 µM | – | > 100 µM | – | > 100 µM | – | > 100 µM | – | > 100 µM | – | > 100 µM | – | > 100 µM | – | > 100 µM
CC(C)=CCN1c2ccccc2NC(=O)CC1C (stereo not drawn) | – | > 100 µM | – | > 100 µM | – | > 100 µM | – | > 100 µM | – | > 100 µM | – | > 100 µM | – | 81.2 µM | – | > 100 µM | – | > 100 µM | – | > 100 µM
COc1ccc(-c2noc(C(=O)O)c2-c2cc(OC)c(OC)c(OC)c2)cc1 | 4.85 µM | > 100 µM | 2.35 µM | > 100 µM | 1.47 µM | > 100 µM | 0.402 µM | > 100 µM | 5.12 µM | > 100 µM | 5.61 µM | > 100 µM | 37.2 µM | > 100 µM | 4.91 µM | > 100 µM | 4.01 µM | > 100 µM | – | –
COc1cccc(-c2nc3cc(NC(=O)c4ccc(Cl)c(C#N)c4)ccc3o2)c1 | 1.74 µM | 3.33 µM | 23.3 µM | > 100 µM | 1.42 µM | 4.31 µM | 35.1 µM | > 100 µM | 3.7 µM | > 100 µM | – | – | 3.1 µM | > 100 µM | 7.55 µM | > 100 µM | – | – | – | –
